# PubChem BioAssay AID256 (DTP/NCI, 2004)
# Values joined by “and” are separate entries in the source; they are usually repeats but may differ in a detail not shown here. Identical values can stand only once. Toxic doses and inconclusive results are not listed.
# Test system: CD2F1 mice, L1210 leukemia ip, survival T/C
# Assay: NCI In Vivo Anticancer Drug Screen. Data for tumor model L1210 Leukemia (intraperitoneal) in CD2F1 (CDF1) mice
# Conditions: endpoint: mean survival time, higher = longer survival
# In short: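 Mice carrying a transplanted tumor received test compound or vehicle alone. The value is the measurement in the treated group divided by that in the vehicle-treated control group.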
# [1] = dose: 50.0 mg/kg/injection, schedule: Q01DX009 (ip), vehicle: Klucel (hydroxypropylcellulose) (HPC)
# [2] = dose: 100.0 mg/kg/injection, schedule: Q01DX009 (ip), vehicle: Klucel (hydroxypropylcellulose) (HPC)
# [3] = dose: 200.0 mg/kg/injection, schedule: Q01DX009 (ip), vehicle: Klucel (hydroxypropylcellulose) (HPC)
# [4] = dose: 100.0 mg/kg/injection, schedule: Q01DX009 (ip), vehicle: saline with Tween-80
# [5] = dose: 200.0 mg/kg/injection, schedule: Q01DX009 (ip), vehicle: saline with Tween-80
# [6] = dose: 400.0 mg/kg/injection, schedule: Q01DX009 (ip), vehicle: saline with Tween-80
# [7] = dose: 50.0 mg/kg/injection, schedule: Q01DX009 (ip), vehicle: saline with Tween-80
compound,measurement,setting,value
Nc1ccccc1OCCCn1cc(-c2ccc(Cl)c(Cl)c2)c(N)nc1=O,T/C,[1],94 % of control
same,T/C,[2],101 % of control
same,T/C,[3],90 % of control
Cc1cc(C)c2c(C#N)cn(-c3ccccc3)c2n1,T/C,"dose: 100.0 mg/kg/injection, schedule: Q01DX001 (ip), vehicle: saline",104 % of control
same,T/C,"dose: 200.0 mg/kg/injection, schedule: Q01DX001 (ip), vehicle: saline",100 % of control
same,T/C,"dose: 400.0 mg/kg/injection, schedule: Q01DX001 (ip), vehicle: saline",100 % of control
O=C(N/N=C/c1ccccc1O)c1ccncc1,T/C,[4],98 % of control
same,T/C,"dose: 100.0 mg/kg/injection, schedule: Q04DX003 (ip), vehicle: saline with Tween-80",98 % of control
same,T/C,[5],95 % of control
same,T/C,"dose: 200.0 mg/kg/injection, schedule: Q04DX003 (ip), vehicle: saline with Tween-80",96 % of control
same,T/C,[6],98 % of control
same,T/C,"dose: 400.0 mg/kg/injection, schedule: Q04DX003 (ip), vehicle: saline with Tween-80",98 % of control
CCN(CC)CCCC(C)Nc1ccnc2cc(Cl)ccc12 (centres undefined),T/C,"dose: 100.0 mg/kg/injection, schedule: Q04DX002 (ip), vehicle: saline",91 % of control
CN(C)C=Nc1ccc(Cl)c(Cl)c1,T/C,"dose: 25.0 mg/kg/injection, schedule: Q04DX003 (ip), vehicle: saline",98 % of control
same,T/C,"dose: 50.0 mg/kg/injection, schedule: Q04DX003 (ip), vehicle: saline",92 % of control
Cc1c2cc[n+](CCN3CCCCC3)cc2c(C)c2c1[nH]c1ccc(O)cc12,T/C,"dose: 1.56 mg/kg/injection, schedule: Q01DX009 (ip), vehicle: suspension in saline",160 % of control
same,T/C,"dose: 12.5 mg/kg/injection, schedule: Q01DX009 (ip), vehicle: saline",150 % of control
same,T/C,"dose: 12.5 mg/kg/injection, schedule: Q01DX009 (ip), vehicle: suspension in saline",121 % of control
same,T/C,"dose: 50.0 mg/kg/injection, schedule: Q01DX009 (ip), vehicle: saline",188 % of control
same,T/C,"dose: 50.0 mg/kg/injection, schedule: Q01DX009 (ip), vehicle: suspension in saline",92 % of control
COc1ccc(OCCOC(=O)Nc2ccc(Cl)cc2C)cc1,T/C,[7],90 % of control
same,T/C,[4],96 % of control
same,T/C,[5],100 % of control
Nc1nc(N)c2nc(CNc3ccc(C(=O)NC(CCC(=O)O)C(=O)O)cc3)cnc2n1 (centres undefined),T/C,"dose: 0.2 mg/kg/injection, schedule: Q01DX009 (ip), vehicle: alkali diluted with saline",150 % of control
same,T/C,"dose: 0.3 mg/kg/injection, schedule: Q01DX009 (ip), vehicle: alkali diluted with saline",156 % of control
same,T/C,"dose: 0.44 mg/kg/injection, schedule: Q01DX009 (ip), vehicle: alkali diluted with saline",174 % of control
same,T/C,"dose: 0.67 mg/kg/injection, schedule: Q01DX009 (ip), vehicle: alkali diluted with saline",166 % of control
same,T/C,"dose: 0.7 mg/kg/injection, schedule: Q01DX009 (ip), vehicle: alkali diluted with saline",118 % of control
same,T/C,"dose: 1.0 mg/kg/injection, schedule: Q01DX009 (ip), vehicle: alkali diluted with saline",114 % of control
same,T/C,"dose: 1.1 mg/kg/injection, schedule: Q01DX009 (ip), vehicle: alkali diluted with saline",96 % of control
same,T/C,"dose: 1.5 mg/kg/injection, schedule: Q01DX009 (ip), vehicle: alkali diluted with saline",104 % of control
same,T/C,"dose: 1.7 mg/kg/injection, schedule: Q01DX009 (ip), vehicle: alkali diluted with saline",86 % of control
COC(=O)CCC(C)C1CCC2C3C(O)CC4CC(O)CCC4(C)C3CC(O)C12C (centres undefined),T/C,"dose: 25.0 mg/kg/injection, schedule: Q01DX009 (ip), vehicle: saline with Tween-80",96 % of control
same,T/C,[7],93 % of control
same,T/C,[4],95 % of control and 100 % of control
O=C(O)/C=C/C(=O)Nc1ccc(Cl)c(Cl)c1,T/C,"dose: 6.25 mg/kg/injection, schedule: Q01DX009 (ip), vehicle: Klucel (hydroxypropylcellulose) (HPC)",93 % of control
same,T/C,"dose: 12.5 mg/kg/injection, schedule: Q01DX009 (ip), vehicle: Klucel (hydroxypropylcellulose) (HPC)",96 % of control and 98 % of control
same,T/C,"dose: 25.0 mg/kg/injection, schedule: Q01DX009 (ip), vehicle: Klucel (hydroxypropylcellulose) (HPC)",113 % of control and 104 % of control
same,T/C,[1],114 % of control and 104 % of control and 110 % of control
same,T/C,[2],104 % of control and 107 % of control and 109 % of control
same,T/C,[3],98 % of control
CC(=O)Nc1ccc(/C=C(\C#N)c2ccc(C)cc2)cc1,T/C,[4],89 % of control
same,T/C,[5],91 % of control
same,T/C,[6],100 % of control
CNC(=S)N/N=C/c1c(Cl)n(-c2ccccc2)c2c(/C=N/NC(=S)NC)cccc12,T/C,"dose: 25.0 mg/kg/injection, schedule: Q04DX003 (ip), vehicle: Klucel (hydroxypropylcellulose) (HPC)",96 % of control
same,T/C,"dose: 50.0 mg/kg/injection, schedule: Q04DX003 (ip), vehicle: Klucel (hydroxypropylcellulose) (HPC)",93 % of control
same,T/C,"dose: 100.0 mg/kg/injection, schedule: Q04DX003 (ip), vehicle: Klucel (hydroxypropylcellulose) (HPC)",89 % of control
O=C1C=CC(=O)N1c1ccccc1N1C(=O)C=CC1=O,T/C,"dose: 1.25 mg/kg/injection, schedule: Q01DX009 (ip), vehicle: Klucel (hydroxypropylcellulose) (HPC)",90 % of control
same,T/C,"dose: 2.5 mg/kg/injection, schedule: Q01DX009 (ip), vehicle: Klucel (hydroxypropylcellulose) (HPC)",94 % of control
